Values quoted from earlier work in paper PMC8146789, “20-Hydroxyecdysone, from Plant Extracts to Clinical Use: Therapeutic Potential for the Treatment of Neuromuscular, Cardio-Metabolic and Respiratory Diseases” (Biomedicines, 2021).
Where two headings read alike, the source gives them in different places.

What was measured:
C2C12 myotubes = test system: C2C12 myotubes; design: method as in PMID 24974955; conditions: 20E 1 μM; ref [54]; cited from earlier work
[1] = design: method as in PMID 31190566; conditions: high fructose fed gerbils; ref [61]; cited from earlier work
[2] = design: method as in doi:10.1055/s-0032-1320426; conditions: ovariectomized rats, p < 0.05; ref [171],[172]; cited from earlier work
C2C12 cells = test system: C2C12 cells; design: method as in ref [103] = [103]; 103. Dilda P. Foucault A.S. Serova M. On S. Raynal S. Veillet S. Dioh W. Lafont R. BIO101, a drug candidate targeting Mas receptor for the treatment of age-reated muscle degeneration. From molecular t; conditions: C2C12 myotubes, ref [103], cited from earlier work
[3] = design: method as in Wu et al. [124]; conditions: mice, ref Wu et al. [124], cited from earlier work

Compound: CC(C)(O)CC[C@@H](O)[C@](C)(O)[C@H]1CC[C@@]2(O)C3=CC(=O)[C@@H]4C[C@@H](O)[C@@H](O)C[C@]4(C)[C@H]3CC[C@]12C [20E, 2β,3β,14α,20R,22R,25-hexahydroxy-5β-cholest-7-en-6-one]
- myotube diameter (C2C12 myotubes): enhanced myotube diameter
- effect on adiposity [1]: efficient
- abdominal, bone marrow and joint fat [2]: reduced the amount of abdominal, bone marrow and joint fat
- optimal concentration for anabolic effect on protein synthesis (C2C12 cells; 0.01–10 μM tested): 1 µM
- protein synthesis stimulatory activity (C2C12 cells; 20E 0.01–10 μM, IGF-1 100 ng/mL): equally active as insulin-like growth factor-1 (IGF-1)
- quantitative distribution, Adrenals ([3]; 5 min): 0.184 µg/g
- quantitative distribution, Bile ([3]; 5 min): 0.421 µg/g
- quantitative distribution, Bladder ([3]; 5 min): 0.013 µg/g
- quantitative distribution, Blood plasma ([3]; 5 min): 0.061 µg/g
- quantitative distribution, Brain ([3]; 5 min): 0.013 µg/g
- quantitative distribution, Feces ([3]; 5 min): 0.015 µg/g
- quantitative distribution, Heart ([3]; 5 min): 0.062 µg/g
- quantitative distribution, Kidney ([3]; 5 min): 0.137 µg/g
- quantitative distribution, Large intestine ([3]; 5 min): 0.011 µg/g
- quantitative distribution, Liver ([3]; 5 min): 0.312 µg/g
- quantitative distribution, Lungs ([3]; 5 min): 0.116 µg/g
- quantitative distribution, Skeletal muscle ([3]; 5 min): 0.021 µg/g
- quantitative distribution, Small intestine ([3]; 5 min): 0.254 µg/g
- quantitative distribution, Spinal cord ([3]; 5 min): 0.019 µg/g
- quantitative distribution, Spleen ([3]; 5 min): 0.041 µg/g
- quantitative distribution, Stomach ([3]; 5 min): 0.034 µg/g
- quantitative distribution, Testis ([3]; 5 min): 0.048 µg/g
- quantitative distribution, Urine ([3]; 5 min): 0.482 µg/g
- quantitative distribution, Adrenals ([3]; 10 min): 0.139 µg/g
- quantitative distribution, Bile ([3]; 10 min): 0.456 µg/g
- quantitative distribution, Bladder ([3]; 10 min): 0.024 µg/g
- quantitative distribution, Blood plasma ([3]; 10 min): 0.057 µg/g
- quantitative distribution, Brain ([3]; 10 min): 0.014 µg/g
- quantitative distribution, Feces ([3]; 10 min): 0.019 µg/g
- quantitative distribution, Heart ([3]; 10 min): 0.052 µg/g
- quantitative distribution, Kidney ([3]; 10 min): 0.123 µg/g
- quantitative distribution, Large intestine ([3]; 10 min): 0.023 µg/g
- quantitative distribution, Liver ([3]; 10 min): 0.251 µg/g
- quantitative distribution, Lungs ([3]; 10 min): 0.069 µg/g
- quantitative distribution, Skeletal muscle ([3]; 10 min): 0.023 µg/g
- quantitative distribution, Small intestine ([3]; 10 min): 0.139 µg/g
- quantitative distribution, Spinal cord ([3]; 10 min): 0.028 µg/g
- quantitative distribution, Spleen ([3]; 10 min): 0.026 µg/g
- quantitative distribution, Stomach ([3]; 10 min): 0.047 µg/g
- quantitative distribution, Testis ([3]; 10 min): 0.036 µg/g
- quantitative distribution, Urine ([3]; 10 min): 0.921 µg/g
- quantitative distribution, Adrenals ([3]; 30 min): 0.098 µg/g
- quantitative distribution, Bile ([3]; 30 min): 1.042 µg/g
- quantitative distribution, Bladder ([3]; 30 min): 0.038 µg/g
- quantitative distribution, Blood plasma ([3]; 30 min): 0.052 µg/g
- quantitative distribution, Brain ([3]; 30 min): 0.015 µg/g
- quantitative distribution, Feces ([3]; 30 min): 0.035 µg/g
- quantitative distribution, Heart ([3]; 30 min): 0.035 µg/g
- quantitative distribution, Kidney ([3]; 30 min): 0.098 µg/g
- quantitative distribution, Large intestine ([3]; 30 min): 0.029 µg/g
- quantitative distribution, Liver ([3]; 30 min): 0.213 µg/g
- quantitative distribution, Lungs ([3]; 30 min): 0.057 µg/g
- quantitative distribution, Skeletal muscle ([3]; 30 min): 0.028 µg/g
- quantitative distribution, Small intestine ([3]; 30 min): 0.094 µg/g
- quantitative distribution, Spinal cord ([3]; 30 min): 0.067 µg/g
- quantitative distribution, Spleen ([3]; 30 min): 0.024 µg/g
- quantitative distribution, Stomach ([3]; 30 min): 0.075 µg/g
- quantitative distribution, Testis ([3]; 30 min): 0.029 µg/g
- quantitative distribution, Urine ([3]; 30 min): 1.534 µg/g
- quantitative distribution, Adrenals ([3]; 1 h): 0.081 µg/g
- quantitative distribution, Bile ([3]; 1 h): 0.901 µg/g
- quantitative distribution, Bladder ([3]; 1 h): 0.026 µg/g
- quantitative distribution, Blood plasma ([3]; 1 h): 0.047 µg/g
- quantitative distribution, Brain ([3]; 1 h): 0.013 µg/g
- quantitative distribution, Feces ([3]; 1 h): 0.068 µg/g
- quantitative distribution, Heart ([3]; 1 h): 0.033 µg/g
- quantitative distribution, Kidney ([3]; 1 h): 0.071 µg/g
- quantitative distribution, Large intestine ([3]; 1 h): 0.031 µg/g
- quantitative distribution, Liver ([3]; 1 h): 0.112 µg/g
- quantitative distribution, Lungs ([3]; 1 h): 0.053 µg/g
- quantitative distribution, Skeletal muscle ([3]; 1 h): 0.017 µg/g
- quantitative distribution, Small intestine ([3]; 1 h): 0.083 µg/g
- quantitative distribution, Spinal cord ([3]; 1 h): 0.041 µg/g
- quantitative distribution, Spleen ([3]; 1 h): 0.018 µg/g
- quantitative distribution, Stomach ([3]; 1 h): 0.061 µg/g
- quantitative distribution, Testis ([3]; 1 h): 0.026 µg/g
- quantitative distribution, Urine ([3]; 1 h): 0.281 µg/g
- quantitative distribution, Adrenals ([3]; 3 h): 0.073 µg/g
- quantitative distribution, Bile ([3]; 3 h): 0.301 µg/g
- quantitative distribution, Bladder ([3]; 3 h): 0.023 µg/g
- quantitative distribution, Blood plasma ([3]; 3 h): 0.032 µg/g
- quantitative distribution, Brain ([3]; 3 h): 0.012 µg/g
- quantitative distribution, Feces ([3]; 3 h): 0.099 µg/g
- quantitative distribution, Heart ([3]; 3 h): 0.031 µg/g
- quantitative distribution, Kidney ([3]; 3 h): 0.055 µg/g
- quantitative distribution, Large intestine ([3]; 3 h): 0.035 µg/g
- quantitative distribution, Liver ([3]; 3 h): 0.078 µg/g
- quantitative distribution, Lungs ([3]; 3 h): 0.049 µg/g
- quantitative distribution, Skeletal muscle ([3]; 3 h): 0.015 µg/g
- quantitative distribution, Small intestine ([3]; 3 h): 0.076 µg/g
- quantitative distribution, Spinal cord ([3]; 3 h): 0.033 µg/g
- quantitative distribution, Spleen ([3]; 3 h): 0.023 µg/g
- quantitative distribution, Stomach ([3]; 3 h): 0.053 µg/g
- quantitative distribution, Testis ([3]; 3 h): 0.023 µg/g
- quantitative distribution, Urine ([3]; 3 h): 0.102 µg/g
- quantitative distribution, Adrenals ([3]; 6 h): 0.065 µg/g
- quantitative distribution, Bile ([3]; 6 h): 0.209 µg/g
- quantitative distribution, Bladder ([3]; 6 h): 0.018 µg/g
- quantitative distribution, Blood plasma ([3]; 6 h): 0.023 µg/g
- quantitative distribution, Brain ([3]; 6 h): 0.01 µg/g
- quantitative distribution, Feces ([3]; 6 h): 0.931 µg/g
- quantitative distribution, Heart ([3]; 6 h): 0.029 µg/g
- quantitative distribution, Kidney ([3]; 6 h): 0.043 µg/g
- quantitative distribution, Large intestine ([3]; 6 h): 0.048 µg/g
- quantitative distribution, Liver ([3]; 6 h): 0.061 µg/g
- quantitative distribution, Lungs ([3]; 6 h): 0.045 µg/g
- quantitative distribution, Skeletal muscle ([3]; 6 h): 0.013 µg/g
- quantitative distribution, Small intestine ([3]; 6 h): 0.061 µg/g
- quantitative distribution, Spinal cord ([3]; 6 h): 0.024 µg/g
- quantitative distribution, Spleen ([3]; 6 h): 0.027 µg/g
- quantitative distribution, Stomach ([3]; 6 h): 0.041 µg/g
- quantitative distribution, Testis ([3]; 6 h): 0.021 µg/g
- quantitative distribution, Urine ([3]; 6 h): 0.096 µg/g
- quantitative distribution, Adrenals ([3]; 12 h): 0.052 µg/g
- quantitative distribution, Bile ([3]; 12 h): 0.198 µg/g
- quantitative distribution, Bladder ([3]; 12 h): 0.015 µg/g
- quantitative distribution, Blood plasma ([3]; 12 h): 0.015 µg/g
- quantitative distribution, Brain ([3]; 12 h): 0.008 µg/g
- quantitative distribution, Feces ([3]; 12 h): 0.312 µg/g
- quantitative distribution, Heart ([3]; 12 h): 0.023 µg/g
- quantitative distribution, Kidney ([3]; 12 h): 0.037 µg/g
- quantitative distribution, Large intestine ([3]; 12 h): 0.038 µg/g
- quantitative distribution, Liver ([3]; 12 h): 0.056 µg/g
- quantitative distribution, Lungs ([3]; 12 h): 0.036 µg/g
- quantitative distribution, Skeletal muscle ([3]; 12 h): 0.011 µg/g
- quantitative distribution, Small intestine ([3]; 12 h): 0.05 µg/g
- quantitative distribution, Spinal cord ([3]; 12 h): 0.020 µg/g
- quantitative distribution, Spleen ([3]; 12 h): 0.032 µg/g
- quantitative distribution, Stomach ([3]; 12 h): 0.032 µg/g
- quantitative distribution, Testis ([3]; 12 h): 0.019 µg/g
- quantitative distribution, Urine ([3]; 12 h): 0.087 µg/g
- quantitative distribution, Adrenals ([3]; 24 h): 0.043 µg/g
- quantitative distribution, Bile ([3]; 24 h): 0.094 µg/g
- quantitative distribution, Bladder ([3]; 24 h): 0.013 µg/g
- quantitative distribution, Blood plasma ([3]; 24 h): 0.011 µg/g
- quantitative distribution, Brain ([3]; 24 h): 0.007 µg/g
- quantitative distribution, Feces ([3]; 24 h): 0.041 µg/g
- quantitative distribution, Heart ([3]; 24 h): 0.022 µg/g
- quantitative distribution, Kidney ([3]; 24 h): 0.032 µg/g
- quantitative distribution, Large intestine ([3]; 24 h): 0.023 µg/g
- quantitative distribution, Liver ([3]; 24 h): 0.046 µg/g
- quantitative distribution, Lungs ([3]; 24 h): 0.028 µg/g
- quantitative distribution, Skeletal muscle ([3]; 24 h): 0.010 µg/g
- quantitative distribution, Small intestine ([3]; 24 h): 0.033 µg/g
- quantitative distribution, Spinal cord ([3]; 24 h): 0.018 µg/g
- quantitative distribution, Spleen ([3]; 24 h): 0.027 µg/g
- quantitative distribution, Stomach ([3]; 24 h): 0.023 µg/g
- quantitative distribution, Testis ([3]; 24 h): 0.017 µg/g
- quantitative distribution, Urine ([3]; 24 h): 0.046 µg/g
